Data: US20050063956A1, “Method and device for attracting insects” (Colorado State University Research Foundation, priority 1998, published 2005)

Columns and labels:
[1] = system: western corn root worm larvae; assay: Glass bead Y-tube choice test, corn volatiles versus CO2 (Example 19); set-up: species or system Diabrotica virgifera virgifera LeConte; settings: in vivo
Experimental: Bioassay Procedure. All bioassays were choice tests conducted using a vertical glass “Y” tube apparatus filled with 3-mm glass beads (Bernklau and Bjostad 1998) (FIG. 62). Volatile compounds were prepared in 35-ml polyethylene syringes (cat no. 106-0490, Sherwood Medical, St. Louis, Mo.) and a syringe pump (Sage Model 355, Fisher Scientific, Pittsburgh, Pa.) was used to provide, slow (1 ml per min) consistent delivery of the compounds into each choice arm of the bioassay apparatus. Twenty newly-hatched larvae (less than 12-hours-old) were used for each bioassay. Non-diapausing larvae were used for all experiments unless otherwise indicated below. For each choice test a minimum of 10 replicates were conducted.
Corn Headspace Versus CO2. Using the glass bead bioassay (Bernklau and Bjostad 1998) the headspace over germinating corn seeds was tested in a choice test against a series of CO2 concentrations to determine if corn volatiles (including CO2) were more attractive to the larvae than CO2 alone. A 35-ml syringe was filled with the headspace over 3-day-old germinating corn seedlings by means of a 25-cm length of slender Teflon tubing inserted into a hole drilled into the cover of the tub containing the corn seedlings.
Three different concentrations of CO2 were tested on the control side of the choice test. In the 1 st test, we used ambient room air on the control side, which contains a lower concentration of CO2 than the corn headspace (approximately 1.0 mmol/mol). In the 2nd test, we used GC-MS-SIM to match the CO2 concentration in the syringe on the control side to be equal to that measured in the syringe containing corn headspace. In the 3rd test, the syringe on the control side of the choice test contained a CO2 concentration twice that measured in the corn headspace. To prepare each of these control concentrations, a 2nd 35-ml polyethylene syringe was partially filled (approximately 5 ml) from a tank containing pure (100%) CO2 using a glass syringe. Headspace from a plastic tub containing only moist germination paper was drawn into the syringe to fill it, mixing the air and CO2 thoroughly at the same time. The gas mixtures in the polyethylene syringes were allowed to equilibrate for 15 minutes, and GC-MS-SIM was used to verify the CO2 concentrations in both syringes prior to each bioassay.
Corn Headspace Versus CO2 with Diapausing Larvae. The larvae used in our studies were from a colony of nondiapausing western corn root worm that has been maintained in our laboratory since 1986. We wished to determine if diapausing western corn root worm larvae would respond differently to corn volatiles than the colony larvae. Using the same method described above, the headspace over germinating corn seeds was tested in a choice test against a series of CO2 concentrations with western corn root worm larvae from a diapausing strain.
Corn Headspace-Coated Glass Beads versus CO2. In the previous experiments, corn volatiles were introduced into the bottom of the Y-tube and carried through the glass beads by the airstream from the syringe pump. We also tested the possibility that some volatile compounds may have been removed from the airstream by coating out on the glass beads on the bottom of the Y-tube where they would not be available for the larvae to detect at the choice point near the middle of the Y-tube. […]

[2] = system: neonate Western Corn root worm larvae; assay: Larval bioassay in soil tubs with granules; set-up: species or system Diabrotica species; settings: in vivo
Experimental: The bioassay comprises a laboratory test conducted in tubs (30×15×8 cm) filled with 3000 grams of soil. A single corn seed is placed 2 cm from one end of the tub. After the corn plant is 4 days old, 30 neonate Western Corn root worm larvae are introduced into the soil in the end of the tub opposite the corn seedings. Larvae are given 24 hours to attempt to locate and attack the corn plant. Larvae are recovered from the corn plant. For granule tests, a measured amount (0.25 gram of prepared granule is mixed into 1.0 kg. of soil (20% moisture). This soil is used to fill the center ⅓ of the bioassay tub.

[3] = system: corn root worm neonate larvae; assay: Repellence test, larvae staying on paper (FIG. 78); type: in vivo; settings: in the presence of a feeding stimulus
Diabrotica larvae = settings: Jewett and Bjostad (1996); cited from earlier work

For `CCCCC/C=C\C/C=C\CCCCCCCC(=O)O` [linoleic acid], the “role in attraction of larvae to corn roots (conclusion)” value (“role in attraction of larvae” for short) [1] was “not involved in attraction of western corn root worm larvae”.

For `COc1ccc2[nH]c(=O)oc2c1` [MBOA, 6-methoxy-2-benzoxazolinone], the “role in attraction of larvae” value [1] was “not involved in attraction of western corn root worm larvae”.

For `CN1COCN(Cc2cnc(Cl)s2)/C1=N\[N+](=O)[O-]` [Thiamethoxam], the “effect on control of larvae provided by attractant granules” value [2] was “greatly improved” and the “repellence to neonate larvae” value [3] was “does not repel corn root worm neonate larvae”.

In the case of `CCCCCCCCCCCCCCCCCC(=O)O` [stearic acid], the “role in attraction of larvae” value [1] is reported as “not involved in attraction of western corn root worm larvae”.

For `ClCCl` [dichloromethane], the attractiveness to larvae (Diabrotica larvae) is given as “attractive to Diabrotica larvae”.

For `CCCCCCCC/C=C\CCCCCCCC(=O)O` [oleic acid], the “role in attraction of larvae” value [1] was “not involved in attraction of western corn root worm larvae”.
